How the values were obtained:
dopamine D2 receptors [1] = molecular target: T1, dopamine D2 receptors (Homo sapiens (Human), UniProt P14416); experiment: Dopamine D2 receptor Gαi1 BRET (G protein trimer dissociation); assay type: cell-based; conditions: for Emax: read-out: Gαi1 BRET (Emax %);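 for all read-outs here: transfected cells co-expressing D2 receptor, Gαi1-Rluc, Gβ3 and Gγ9-GFP, BRET with coelenterazine 400a at 5 µM read as G protein trimer dissociation, graded drug concentrations in duplicate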
T1 sequence (P14416 whole entry): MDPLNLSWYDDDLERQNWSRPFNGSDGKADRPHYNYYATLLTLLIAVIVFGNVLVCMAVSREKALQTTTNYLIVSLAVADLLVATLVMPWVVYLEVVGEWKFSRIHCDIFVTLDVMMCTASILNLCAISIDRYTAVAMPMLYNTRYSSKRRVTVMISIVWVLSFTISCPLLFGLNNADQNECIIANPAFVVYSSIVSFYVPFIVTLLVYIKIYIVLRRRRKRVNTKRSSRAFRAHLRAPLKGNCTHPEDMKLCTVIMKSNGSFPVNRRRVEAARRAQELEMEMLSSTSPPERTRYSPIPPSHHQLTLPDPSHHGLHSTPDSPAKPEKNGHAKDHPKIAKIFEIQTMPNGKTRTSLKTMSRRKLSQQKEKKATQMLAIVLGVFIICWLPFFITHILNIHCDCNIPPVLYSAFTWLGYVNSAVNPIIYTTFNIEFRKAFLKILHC
Method: (§1) To examine the downstream G protein signaling pathway mediated by dopamine D2 receptors, on the first day, a 6 cm culture dish was used for transfection with 1 μg of dopamine D2 receptors, 1 μg of Gαi1 containing a C-terminal seaweed luciferase (Gαi1-Rluc), 1 μg of Gβ3, 1 μg of Gγ9 containing C-terminal green fluorescent protein (Gγ9-GFP), and 16 μL of PEI. At the same time, in order to examine the downstream β-arrestin2 signaling pathway mediated by dopamine D2 receptors, on the first day, a 6 cm culture dish was used for transfection with 500 μg of dopamine D2 receptors containing C-terminal seaweed luciferase (D2-Rluc), 500 μg of G protein-coupled receptor kinase 2 (GRK2), 2500 μg of β-arrestin2 containing N-terminal green fluorescent protein (GFP2-ARRB2) mixed with 14 μL of PEI. The next day, the confluent cells of a 6 cm culture dish were digested and reseeded into a 96-well plate with 100 μL of culture medium added to each well. On the third day, the drugs were added for test. The 96-well plate was taken out from the cell incubator to decant the culture medium, 40 μL of the substrate coelenterazine 400a (final concentration of 5 μM) was added to each well, and then 20 μL of different drugs were added sequentially from left to right to ensure that the final concentration of the drug decreased gradually from bottom to top, with two replicates per treatment. Finally, the prepared samples were loaded on machine for test. The machine readout value reflected the recruitment of β-arrestin2 to the membrane or the dissociation of G protein trimer. The former indicated the degree of activation of the β-arrestin2 signaling pathway downstream of the dopamine D2 receptors, and the latter indicated the degree of activation of the G protein signaling pathway downstream of the dopamine D2 receptors.

5-HT1A receptor [2] = molecular target: T2, 5-HT1A receptor (Homo sapiens (Human), UniProt P08908); experiment: Affinity for 5-HT1A receptors, radioligand competition with [3H]-LSD; assay type: binding; conditions: 293T membrane transiently expressing 5-HT1A; [3H]-LSD; read-out: 5-HT1A affinity Ki;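 note: membranes from cells transiently transfected with 5-HT1A receptor, bound [3H]-LSD displaced by compound at 10^-9 to 10^-5 M, 2 h incubation at room temperature in the dark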
T2 sequence (P08908 whole entry): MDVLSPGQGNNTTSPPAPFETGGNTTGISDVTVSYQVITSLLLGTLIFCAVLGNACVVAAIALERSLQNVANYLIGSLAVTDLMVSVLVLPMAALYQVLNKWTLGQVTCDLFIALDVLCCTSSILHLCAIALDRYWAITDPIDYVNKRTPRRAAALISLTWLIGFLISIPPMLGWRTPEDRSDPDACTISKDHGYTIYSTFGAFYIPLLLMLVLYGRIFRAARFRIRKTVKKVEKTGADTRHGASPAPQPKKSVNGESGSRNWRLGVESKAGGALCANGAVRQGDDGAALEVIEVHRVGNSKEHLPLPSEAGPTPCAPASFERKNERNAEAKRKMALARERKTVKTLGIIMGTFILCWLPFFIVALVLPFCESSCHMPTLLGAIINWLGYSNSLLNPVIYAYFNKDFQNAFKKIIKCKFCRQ
Method: (§2) The affinity of the compounds of the present disclosure for the 5-HTIA receptors was determined by the method of radioligand competition experiment. In the first step, a cell membrane component containing specific 5-HTIA receptor was prepared. A 10 cm culture dish was used for transfection with 10 ng of the 5-HTIA receptor and 40 μL of PEI. After 48 hours, the 10 cm culture dish was taken out from the cell incubator and the cultured cells had expressed the 5-HTIA receptor. A vacuum pump was used to suck off the culture medium, 3 mL of lysis buffer was added to each culture dish, and the cells were placed in a 4° C. cold room for 10 minutes. After the cells were detached, the cells were transferred to a 15 mL centrifuge tube and centrifuged at 1500 rpm for 5 minutes at 4° C., and the supernatant was discarded. The cell pellet was transferred to a tissue homogenizer, and 3 mL of lysis buffer was added and fully ground until the cells were broken. Then, cell suspension was equally aliquoted into several EP tubes, centrifuged at 12000 rpm for 5 minutes at 4° C., and the supernatant was discarded. The precipitate was the cell membrane component containing the 5-HT1A receptor. […] First, a standard binding buffer was added to the cell membrane component containing the 5-HT1A receptor, and the cell membrane was disrupted and resuspended with an electric tissue homogenizer. 30 μL of membrane protein suspension was added to each well of a 96-well plate. Then, 30 μL of different drugs were added to the 96-well plate sequentially from bottom to top to ensure that the final drug concentrations were 10^−5 M, 10^−6 M, 10^−7 M, 10^−8 M, 10^−9 M, and 0 M, with two replicates per treatment. Next, 30 μL of [3H]-LSD was added to each well of the 96-well plate. The plate was incubated for 2 hours at room temperature in the dark. Detection was conducted. The machine readout value reflected the amount of [3H]-LSD bound on the membrane, and after further data processing, the affinity Ki values of different compounds for the 5-HTIA receptor were obtained. To examine the downstream G protein signaling pathway mediated by 5-HTIA receptors, on the first day, a 6 cm culture dish was used for transfection with 1 μg of 5-HTIA receptors, 1 μg of Gαi1 containing C-terminal seaweed luciferase (Gαi1-Rluc), 1 μg of Gβ3, 1 μg of Gγ9 containing C-terminal green fluorescent protein (Gγ9-GFP), and 16 μL of PEI. The next day, the confluent cells of a 6 cm culture dish were digested and reseeded into a 96-well plate with 100 μL of culture medium was added to each well. On the third day, the drugs were added for test. The 96-well plate was taken out from the cell incubator to decant the culture medium, 40 μL of the substrate coelenterazine 400a (final concentration of 5 μM) was added to each well, and then 20 μL of different drugs were added sequentially from left to right to ensure that the final concentration of the drug decreased gradually from bottom to top, with two replicates per treatment. Finally, the prepared samples were loaded on machine for test. The machine readout value reflected the dissociation of G protein trimer, and thereby indicated the degree of activation of the G protein signaling pathway downstream of the 5-HTIA receptors.

5-HT1A receptor [3] = molecular target: T2, 5-HT1A receptor; experiment: 5-HT1A receptor Gαi1 BRET (G protein trimer dissociation); assay type: cell-based; conditions: 5-HT1A receptor, G protein pathway; for EC50: read-out: Gαi1 BRET EC50;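 for all read-outs here: cells transiently co-expressing 5-HT1A receptor, luciferase-tagged Gαi1, Gβ3 and GFP-tagged Gγ9, seeded in 96-well plates for BRET measurement of G protein signaling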
Method: as §2

5-HT2A receptor [4] = molecular target: T3, 5-HT2A receptor (Homo sapiens (Human), UniProt P28223); experiment: Affinity for 5-HT2A receptors, radioligand competition with [3H]-ketanserin; assay type: binding; conditions: 293T membrane transiently expressing 5-HT2A
T3 sequence (P28223 whole entry, the tested form may be a part): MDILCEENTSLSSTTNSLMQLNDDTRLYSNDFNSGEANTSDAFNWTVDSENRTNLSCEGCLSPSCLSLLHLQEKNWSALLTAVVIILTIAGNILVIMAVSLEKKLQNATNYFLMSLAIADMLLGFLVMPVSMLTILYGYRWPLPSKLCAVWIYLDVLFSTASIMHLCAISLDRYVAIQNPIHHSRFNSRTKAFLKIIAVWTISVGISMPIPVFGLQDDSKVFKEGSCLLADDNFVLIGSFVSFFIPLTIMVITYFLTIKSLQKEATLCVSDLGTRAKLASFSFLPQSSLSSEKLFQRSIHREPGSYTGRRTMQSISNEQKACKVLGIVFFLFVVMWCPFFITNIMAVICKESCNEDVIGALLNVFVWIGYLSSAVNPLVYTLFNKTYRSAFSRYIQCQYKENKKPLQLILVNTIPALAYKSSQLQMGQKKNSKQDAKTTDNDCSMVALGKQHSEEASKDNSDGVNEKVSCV
Method: The affinity of the compounds of the present disclosure for the 5-HT2A receptors was determined by the method of radioligand competition experiment. In the first step, a cell membrane component containing specific 5-HT2A receptor was prepared. A 10 cm dish was used for transfection with 10 ng of the 5-HT2A receptor and 40 μL of PEI. After 48 hours, the 10 cm dish was taken out from the cell incubator and the cultured cells had expressed the 5-HT2A receptor. A vacuum pump was used to suck off the culture medium, 3 mL of lysis buffer was added to each culture dish, and the cells were placed in a 4° C. cold room for 10 minutes. After the cells were detached, the cells were transferred to a 15 mL centrifuge tube and centrifuged at 1500 rpm for 5 minutes at 4° C., and the supernatant was discarded. The cell pellet was transferred to a tissue homogenizer, and 3 mL of lysis buffer was added and fully ground until the cells were broken. Then, cell suspension was equally aliquoted into several EP tubes, centrifuged at 12000 rpm for 5 minutes at 4° C., and the supernatant was discarded. The precipitate was the cell membrane component containing the 5-HT2A receptor. […] First, a standard binding buffer was added to the cell membrane component containing the 5-HT2A receptor, and the cell membrane was disrupted and resuspended with an electric tissue homogenizer. 30 μL of membrane protein suspension was added to each well of a 96-well plate. Then, 30 μL of different drugs were added to the 96-well plate sequentially from bottom to top to ensure that the final drug concentrations were 10^−5 M, 10^−6 M, 10^−7 M, 10^−8 M, 10^−9 M, and 0 M, with two replicates per treatment. Next, 30 μL of [3H]-ketanserin was added to each well of the 96-well plate. The plate was incubated for 2 hours at room temperature in the dark. Detection was conducted. The machine readout value reflected the amount of [3H]-ketanserin bound on the membrane, and after further data processing, the affinity Ki values of different compounds for the 5-HT2A receptor were obtained.

dopamine D2 receptors [5] = molecular target: T1, dopamine D2 receptors; experiment: Dopamine D2 receptor β-arrestin2 BRET (recruitment); assay type: cell-based; conditions: for Emax: read-out: β-arrestin2 BRET (Emax %);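 for all read-outs here: cells co-expressing Rluc-fused D2 receptor, GRK2 and GFP2-fused β-arrestin2, BRET read with coelenterazine 400a after adding drug over a concentration series, in duplicate wells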
Method: as §1

dopamine D2 receptors [6] = molecular target: T1, dopamine D2 receptors; experiment: Affinity for dopamine D2 receptors, radioligand competition with [3H]-Methylspiperone; assay type: binding; conditions: 293T membrane transiently expressing D2
Method: The affinity of the compounds of the present disclosure for the dopamine D2 receptors was determined by the method of radioligand competition experiment. In the first step, a cell membrane component containing specific dopamine D2 receptors was prepared. A 10 cm culture dish was used for transfection with 10 ng of the dopamine D2 receptors and 40 μL of polyethylenimine (PEI hereafter). After 48 hours, the 10 cm culture dish was taken out from the cell culture incubator and the cultured cells had expressed the dopamine D2 receptors. A vacuum pump was used to suck off the culture medium, 3 mL of lysis buffer was added to each culture dish, and the cells were placed in a 4° C. cold room for 10 minutes. After the cells were detached, the cells were transferred to a 15 mL centrifuge tube and centrifuged at 1500 rpm for 5 minutes at 4° C., and the supernatant was discarded. The cell pellet was transferred to a tissue homogenizer, and 3 mL of lysis buffer was added and fully ground until the cells were broken. Then, cell suspension was equally aliquoted into several EP tubes, centrifuged at 12000 rpm for 5 minutes at 4° C., and the supernatant was discarded. The precipitate was the cell membrane component containing the dopamine D2 receptors. […] First, a standard binding buffer was added to the cell membrane component containing the dopamine D2 receptors, and the cell membrane was disrupted and resuspended with an electric tissue homogenizer. 30 μL of membrane protein suspension was added to each well of a 96-well plate. Then, 30 μL of different drugs were added to the 96-well plate sequentially from bottom to top to ensure that the final drug concentrations were 10^−5 M, 10^−6 M, 10^−7 M, 10^−8 M, 10^−9 M, and 0 M, with two replicates per treatment. Next, 30 μL of [3H]-Methylspiperone was added to each well of the 96-well plate. The plate was incubated for 2 hours at room temperature in the dark. Detection was conducted. The machine readout value reflected the amount of [3H]-Methylspiperone bound on the membrane, and after further data processing, the affinity Ki values of different compounds for the dopamine D2 receptors were obtained.

5-HT2A receptor [7] = molecular target: T3, 5-HT2A receptor; experiment: 5-HT2A receptor β-arrestin2 BRET (recruitment); assay type: cell-based; conditions: 5-HT2A receptor, β-arrestin2 pathway; for EC50: read-out: β-arrestin2 BRET EC50;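 for all read-outs here: cells co-expressing Rluc-tagged 5-HT2A receptor, GRK2 and GFP2-tagged β-arrestin2, read by BRET with coelenterazine 400a (5 µM) across graded drug concentrations in duplicate, signal reflecting β-arrestin2 membrane recruitment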
Method: (§3) To examine the downstream G protein signaling pathway mediated by 5-HT2A receptors, on the first day, a 6 cm culture dish was used for transfection with 1 μg of 5-HT2A receptors, 1 μg of Gαq containing C-terminal seaweed luciferase (Gαq-Rluc), 1 μg of Gβ3, 1 μg of Gγ9 containing C-terminal green fluorescent protein (Gγ9-GFP), and 16 μL of PEI. At the same time, in order to examine the downstream β-arrestin2 signaling pathway mediated by 5-HT2A receptors, on the first day, a 6 cm culture dish was used for transfection with 500 μg of 5-HT2A receptors containing C-terminal seaweed luciferase (5-HT2A-Rluc), 500 μg of G protein-coupled receptor kinase 2 (GRK2), 2500 μg of β-arrestin2 containing N-terminal green fluorescent protein (GFP2-ARRB2), and 14 μL of PEI. The next day, the confluent cells of a 6 cm culture dish were digested and reseeded into a 96-well plate with 100 μL of culture medium was added to each well. On the third day, the drugs were added for test. The 96-well plate was taken out from the cell incubator to decant the culture medium, 40 μL of the substrate coelenterazine 400a (final concentration of 5 μM) was added to each well, and then 20 μL of different drugs were added sequentially from left to right to ensure that the final concentration of the drug decreased gradually from bottom to top, with two replicates per treatment. Finally, the prepared samples were loaded on machine for test. The machine readout value reflected the recruitment of β-arrestin2 to the membrane or the dissociation of G protein trimer. The former indicated the degree of activation of the β-arrestin2 signaling pathway downstream of the 5-HT2A receptors, and the latter indicated the degree of activation of the G protein signaling pathway downstream of the 5-HT2A receptors.

5-HT2A receptor [8] = molecular target: T3, 5-HT2A receptor; experiment: 5-HT2A receptor Gαq BRET (G protein trimer dissociation); assay type: cell-based; conditions: for EC50: 5-HT2A receptor, G protein pathway, read-out: Gαq BRET EC50; for Emax: read-out: Gαq BRET (Emax %);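 for all read-outs here: cells transfected with 5-HT2A receptor, Gαq-Rluc, Gβ3 and Gγ9-GFP, BRET read with coelenterazine 400a (5 µM) across a compound dilution series in duplicate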
Method: as §3

[9] = D2 receptor, G protein pathway, read-out: Gαi1 BRET EC50
[10] = D2 receptor, β-arrestin2 pathway, read-out: β-arrestin2 BRET EC50

CN(C)C(=O)N[C@H]1CC[C@H](CCN2CCN3c4cccc5scc(c45)C[C@@H]3C2)CC1 [(+)-I-27]
Gαi1 BRET (Emax %) (dopamine D2 receptors [1]; D2 receptor, G protein pathway): (69.54%)
EC50 (dopamine D2 receptors [1]; [9]): 9.16 nM
Ki (5-HT1A receptor [2]): 170 nM
Gαi1 BRET (Emax %) (5-HT1A receptor [3]): (60%)
EC50 (5-HT1A receptor [3]): 206 nM
Ki (5-HT2A receptor [4]): 450 nM
β-arrestin2 BRET (Emax %) (dopamine D2 receptors [5]; D2 receptor, β-arrestin2 pathway): (45.78%)
EC50 (dopamine D2 receptors [5]; [10]): 16 nM
Ki (dopamine D2 receptors [6]): > 10000 nM

c1csc(CCN2CCN3c4cccc5scc(c45)CC3C2)c1 (centres unmarked) [Compound I-6, 8-(2-(Thiophen-2-Yl)Ethyl)-6,6a,7,8,9,10-Hexahydropyrazino[1,2-a]Thieno [4,3,2-De]Quinoline]
EC50 (dopamine D2 receptors [1]): 342 nM
Emax (dopamine D2 receptors [1]): 58.4%
Ki (5-HT1A receptor [2]): 2730 nM
Emax (5-HT1A receptor [3]): 90%
EC50 (5-HT1A receptor [3]): 3230 nM
Ki (5-HT2A receptor [4]): 7250 nM
EC50 (dopamine D2 receptors [5]): 299 nM
Emax (dopamine D2 receptors [5]): 20.2%
Emax (5-HT2A receptor [7]): 45.4%
EC50 (5-HT2A receptor [7]): 8.34 µM
Ki (dopamine D2 receptors [6]): 5730 nM

O=C(N[C@H]1CC[C@H](CCN2CCN3c4cccc5scc(c45)CC3C2)CC1)N1CCCC1 (stereo partly drawn) [Compound I-28, N-(4-(2-(6a,7,9,10-Tetrahydropyrazino[1,2-a]Thieno [4,3,2-De]Quinolin-8 (6H)-Yl)Ethyl) Trans-Cyclohexyl) Pyrrolidine-1-Carboxamide]
EC50 (dopamine D2 receptors [1]; [9]): 18 nM
Emax (dopamine D2 receptors [1]): 30.7%
Ki (5-HT1A receptor [2]): 50 nM
Emax (5-HT1A receptor [3]): 59%
EC50 (5-HT1A receptor [3]): 142 nM
Ki (5-HT2A receptor [4]): 520 nM
EC50 (dopamine D2 receptors [5]; [10]): 38.7 nM
Emax (dopamine D2 receptors [5]): 34.2%
Ki (dopamine D2 receptors [6]): 80 nM
EC50 (5-HT2A receptor [8]): 184 nM
Emax (5-HT2A receptor [8]): 12.5%

c1ccc(OCCN2CCN3c4cccc5scc(c45)CC3C2)cc1 (centres unmarked) [Compound I-15, 8-(2-Phenoxyethyl)-6,6a,7,8,9,10-Hexahydropyrazino[1,2-a]Thieno [4,3,2-De]Quinoline]
EC50 (dopamine D2 receptors [1]; [9]): 334 nM
Emax (dopamine D2 receptors [1]): 18.6%
Ki (5-HT1A receptor [2]): 840 nM
Emax (5-HT1A receptor [3]): 57%
EC50 (5-HT1A receptor [3]): 5260 nM
Ki (5-HT2A receptor [4]): 1710 nM
EC50 (dopamine D2 receptors [5]; [10]): 164 nM
Emax (dopamine D2 receptors [5]): 10.5%
Emax (5-HT2A receptor [7]): 10%
EC50 (5-HT2A receptor [7]): 1.77 µM
Ki (dopamine D2 receptors [6]): 5500 nM

O=C(NCCN1CCN2c3cccc4scc(c34)CC2C1)c1ccc(F)cc1 (centres unmarked) [Compound I-12, 4-Fluoro-N-(2-(6a,7,9,10-Tetrahydropyrazino[1,2-a]Thieno [4,3,2-De]Quinolin-8 (6H)-Yl)Ethyl)Benzamide]
Ki (5-HT1A receptor [2]): 590 nM
Emax (5-HT1A receptor [3]): 93%
EC50 (5-HT1A receptor [3]): 1320 nM
Ki (5-HT2A receptor [4]): 1520 nM
Emax (5-HT2A receptor [7]): 5.7%
EC50 (5-HT2A receptor [7]): 5.24 µM
Ki (dopamine D2 receptors [6]): 1210 nM

O=c1ccc2ccc(OCCCCN3CCN4c5cccc6scc(c56)CC4C3)cc2[nH]1 (centres unmarked) [Compound I-19, 7-(4-(6a,7,9,10-Tetrahydropyrazino[1,2-a]Thieno [4,3,2-De]Quinolin-8 (6H)-Yl) Butoxy) Quinolin-2 (1H)-One]
EC50 (dopamine D2 receptors [1]; [9]): 8.26 nM
Emax (dopamine D2 receptors [1]): 74.6%
Ki (5-HT1A receptor [2]): 30 nM
Emax (5-HT1A receptor [3]): 81%
EC50 (5-HT1A receptor [3]): 3670 nM
Ki (5-HT2A receptor [4]): 1410 nM
EC50 (dopamine D2 receptors [5]; [10]): 43.9 nM
Emax (dopamine D2 receptors [5]): 64.5%
Ki (dopamine D2 receptors [6]): 10 nM
EC50 (5-HT2A receptor [8]): 1440 nM
Emax (5-HT2A receptor [8]): 15.6%

c1ccc(-c2cccc(CN3CCN4c5cccc6scc(c56)CC4C3)c2)cc1 (centres unmarked) [Compound I-7, 8-([1, l′-Biphenyl]-3-Ylmethyl)-6,6a, 7,8,9, 10-Hexahydropyrazino[1,2-a]Thieno [4,3,2-De]Quinoline]
Ki (5-HT1A receptor [2]): 39300 nM
EC50 (5-HT2A receptor [8]): 140 nM
Emax (5-HT2A receptor [8]): 36.9%

O=C1CCc2ccc(OCCCN3CCN4c5cccc6scc(c56)CC4C3)cc2N1 (centres unmarked) [Compound I-18, 7-(3-(6a,7,9,10-Tetrahydropyrazino[1,2-a]Thieno [4,3,2-De]Quinolin-8 (6H)-Yl) Propoxy)-3,4-Dihydroquinolin-2 (1H)-One]
EC50 (dopamine D2 receptors [1]; [9]): 33.9 nM
Emax (dopamine D2 receptors [1]): 91.3%
Ki (5-HT1A receptor [2]): 10 nM
Emax (5-HT1A receptor [3]): 82%
EC50 (5-HT1A receptor [3]): 696 nM
Ki (5-HT2A receptor [4]): 160 nM
EC50 (dopamine D2 receptors [5]; [10]): 279 nM
Emax (dopamine D2 receptors [5]): 71.9%
Ki (dopamine D2 receptors [6]): 270 nM

O=C(CCCN1CCN2c3cccc4scc(c34)CC2C1)c1ccc(F)cc1 (centres unmarked) [Compound I-11, 1-(4-Fluorophenyl)-4-(6a,7,9,10-Tetrahydropyrazino[1,2-a]Thieno [4,3,2-De]Quinolin-8 (6H)-Yl) Butan-1-One]
Ki (5-HT1A receptor [2]): 4540 nM
Emax (5-HT1A receptor [3]): 28%
EC50 (5-HT1A receptor [3]): 3870 nM
Ki (5-HT2A receptor [4]): 320 nM
Ki (dopamine D2 receptors [6]): 470 nM

Reference: patent US20240383913A1, “THIOPHENE RING COMPOUND, PREPARATION METHOD THEREFOR AND APPLICATION THEREOF” (CENTER FOR EXCELLENCE IN MOLECULAR CELL SCIENCE, CHINESE …, priority 2021, published 2024)
